For experiment [1], the target named is T1, GRP receptors on rat pancreatic acini (Rattus norvegicus, UniProt P52500).
T1 construct: from tissue; host or cells: dispersed pancreatic acini
Nature of the experiment: Binding of 125I-[Tyr4]bombesin to pancreatic acini. As to conditions: read-out: Ki 125I-[Tyr4]Bn Binding, GRP Receptor, Rat Pancreatic Acini; Ki by Cheng method.
Excerpt: Nonsaturable binding was<10% of total binding in all experiments.

The target in experiment [2] is T2, NMB receptors on C-6 cells (Rattus norvegicus, UniProt P24053).
T2 construct: endogenous in cells; host or cells: rat glioblastoma C-6 cells
T2 sequence (P24053 1-390): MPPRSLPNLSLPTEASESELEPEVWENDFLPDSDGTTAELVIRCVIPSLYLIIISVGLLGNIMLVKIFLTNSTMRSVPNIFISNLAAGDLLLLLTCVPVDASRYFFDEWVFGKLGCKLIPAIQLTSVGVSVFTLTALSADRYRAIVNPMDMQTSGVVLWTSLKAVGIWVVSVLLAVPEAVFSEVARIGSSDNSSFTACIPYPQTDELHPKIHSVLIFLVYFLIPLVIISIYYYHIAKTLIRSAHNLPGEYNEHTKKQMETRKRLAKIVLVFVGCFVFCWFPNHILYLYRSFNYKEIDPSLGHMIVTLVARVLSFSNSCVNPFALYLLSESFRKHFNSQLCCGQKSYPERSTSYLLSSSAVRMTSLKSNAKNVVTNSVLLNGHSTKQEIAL
In words: Binding of 125I-[D-Tyr0]NMB to C-6 glioblastoma cells. As to conditions: Ki by Cheng method, read-out: Ki 125I-NMB Binding, NMB Receptor, C-6 Cells. Here is the method: Binding of ^125 I-[D-Tyr^0 ]NMB to C-6 glioblastoma and NMB-R transfected cells
Binding studies using rat glioblastoma C-6 or NMB-R transfected cells were performed as described previously [Benya, R. V. et al. Mol. Pharmacol. 42:1058 (1992); and Wang, L-H. et al. Biochem. J. 286:641 (1992)] by suspending disaggregated cells in binding buffer, which was composed of standing buffer ([…], 7.7 mM KCl, 1.0 mM EGTA, 0.02% soybean trypsin inhibitor) additionally containing 50 mM HEPES, 1 mM MgCl2, 1.5 mM CaCl2, 2.2 mM KH2 PO4, 0,015% glutamine, and 0.2% BSA (w/v) (pH 7.4). Incubations contained 75 pM ^125 I-[D-Tyr^0 ]NMB and 15×10^6 C-6 cells/ml or 2×10^6 NMB-R transfected cells/ml, for 60 min at 22° C. Nonsaturable binding of ^125 I-[D-Tyr^0 ]NMB was the amount of radioactivity associated with C-6 cells or NMB-R transfected cells when the incubation mixture contained […] NMB. Nonsaturable binding was<15% of total binding in all experiments; all values are reported herein as saturable binding (i.e., total minus nonsaturable binding).

Experiment [3] has as its target T3, NMB receptor (Rattus norvegicus, UniProt P24053).
T3 sequence (P24053 1-390): T2 sequence (P24053 1-390)
Nature of the experiment: [3H]inositol phosphates in NMB-R transfected cells (alone or NMB-stimulated). Set-up: a full length NMB-preferring bombesin receptor clone generated from rat esophagus; expressed in transfected cells. As to conditions: NMB-R transfected cells; for IC50: 3 nM NMB; for [3H]IP, analog Alone (10 μM): analog 10 μM alone, control 13 ± 3; for [3H]IP, analog Plus NMB (3 nM): analog 10 μM plus NMB 3 nM, NMB without analog 186 ± 58. Type of experiment: cell-based. Here is the method:
As described previously [Wada, E., et al. Neuron 6:421 (1991)], BALB 3T3 cells expressing a stably transfected rat NMB receptor (NMB-R transfected cells) were obtained using calcium phosphate precipitation of a full length NMB-preferring bombesin receptor clone generated from rat esophagus and subcloned into a modified version of the pCD2 plasmid. Cells were passaged every 3-4 days at confluence, using 0.1% trypsin in 1 mM EDTA. Rat glioblastoma C-6 tumor cells were maintained similarly and were passaged weekly at confluence. Both cell lines were cultured at 37° C. in a 5% CO2 atmosphere. Rat AR 42J pancreatic acinar cells were cultured in Dulbecco's modified Eagle's medium (DMEM) without antibiotics and supplemented with 10% (vol/vol) fetal calf serum. The incubation atmosphere consisted of 10% CO2 -90% humidified air at 37° C.
Measurement of phosphoinositides
Total phosphoinositides in C-6 cells and in NMB-R transfected cells were determined as described previously, with minor modifications [Benya, R. V. et al. Mol. Pharmacol. 42:1058 (1992); and Wang, L-H. et al. Biochem. Jo 286:641 (1992)]. Cells were grown to confluence in 24-well plates and then loaded with 100 μCi/ml myo-[2-^3 H]inositol in Dulbecco's modified essential medium with 2% fetal bovine serum at 37° C. for 48 hrs. Cells were washed and incubated in phosphoinositide buffer (standard buffer additionally containing 10 mM LiCl, 20 mM HEPES, 2 mM CaCl2, 2% BSA, and 1.2 mM MgSO4) for 15 min and then for 60 min at 37° C. with agonists at various concentrations or with 3 nM NMB (a half-maximal effective concentration) and possible antagonists at different concentrations. Reactions were halted using ice-cold 1% HCl in methanol, and the inositol phosphates (IP) were isolated as described previously [Bologna, M. et al. Cancer 63:1714 (1989); and Endo, T. et al. J. Endocrinolo 131:313 (1991)]. Briefly, after loading of the anion exchange column, free [^3 H]glycerophosphorylinositol was removed by washing with 5 mM disodium tetraborate in 60 mM sodium formate. Total [^3 H]inositol phosphates were then eluted using 100 mM formic acid in 1.0M ammonium formate as described previously [Benya, R. V. et al. Mol. Pharmacol. 42:1058 (1992); and Wang, L-H. et al. Biochem. J. 286:641 (1992 )].

The next experiment addresses T4, rat NMB receptor (Rattus norvegicus, UniProt P24053).
T4 construct: a full length NMB-preferring bombesin receptor clone generated from rat esophagus; expressed in transfected cells
T4 sequence (P24053 1-390): T2 sequence (P24053 1-390)
Nature of the experiment: Binding of 125I-[D-Tyr0]NMB to NMB-R transfected BALB 3T3 cells. On the procedure: Cells were passaged every 3-4 days at confluence, using 0.1% trypsin in 1 mM EDTA. Rat glioblastoma C-6 tumor cells were maintained similarly and were passaged weekly at confluence. Both cell lines were cultured at 37° C. in a 5% CO2 atmosphere. Rat AR 42J pancreatic acinar cells were cultured in Dulbecco's modified Eagle's medium (DMEM) without antibiotics and supplemented with 10% (vol/vol) fetal calf serum. The incubation atmosphere consisted of 10% CO2 -90% humidified air at 37° C.

Experiment [4] concerns the target T5, GRP receptor (Rattus norvegicus, UniProt P52500). Nature of the experiment: Amylase release from rat pancreatic acini (alone or Bn-stimulated). It counts as cell-based. Set-up: from tissue; host or cells: dispersed pancreatic acini. Particulars: for Amylase Release, analog Alone (10 μM): analog 10 μM alone, control 4 ± 1; for Amylase Release, analog Plus Bn (0.3 nM): analog 10 μM plus Bn 0.3 nM, Bn without analog 15 ± 1; for IC50: read-out: IC50 Amylase Release, GRP Receptor, Rat Pancreatic Acini. Here is the method:
pancreatic acini or [^3 H]myo[2H]inositolloaded NMBR transfected cell
were incubated either with no additives, the somatostatin octapeptide
analog, Bn, or NMB, or a combination for 30 min at 37° C.. Amylase
release from pancreatic acini was expressed at the indicated percent of
the total cellular amylase released during the incubation. [^3 H]IP i
expressed in dpm's. To test for inhibitory effects, the effect of
somatostatin analog (10 μM) was determined on 0.3 nM Bnstimulated

Experiment [5] concerns the target T3, NMB receptor. In words: NMB membrane receptor assay, 125I-NMB, rat olfactory bulb membranes. It counts as binding. Set-up: Membranes were prepared from rat olfactory bulb (NMB membrane receptor assay); from tissue; host or cells: rat olfactory bulb membranes. Particulars: Cheng method; unit inferred; read-out: affinity, 125I-NMB, Rat Olfactory bulb membranes (neuromedin B receptors).

In a further experiment the target is T6, somatostatin receptors (Rattus norvegicus, UniProt P30680).
T6 construct: endogenous in cells; host or cells: rat AR 42J pancreatic acinar tumor cell membranes
T6 sequence (P30680 whole entry): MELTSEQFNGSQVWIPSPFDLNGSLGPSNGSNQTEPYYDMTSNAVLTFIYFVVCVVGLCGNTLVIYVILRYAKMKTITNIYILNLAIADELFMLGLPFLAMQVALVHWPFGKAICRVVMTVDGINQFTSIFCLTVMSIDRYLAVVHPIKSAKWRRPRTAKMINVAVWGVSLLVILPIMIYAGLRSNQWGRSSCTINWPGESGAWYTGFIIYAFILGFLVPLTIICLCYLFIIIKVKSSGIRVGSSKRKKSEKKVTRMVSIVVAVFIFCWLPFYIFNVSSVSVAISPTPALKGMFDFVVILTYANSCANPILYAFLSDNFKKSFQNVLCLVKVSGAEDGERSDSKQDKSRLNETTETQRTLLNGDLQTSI
Nature of the experiment: Somatostatin membrane receptor assay, 125I-[Tyr11]SS-14, AR 42J cell membranes. As to conditions: Cheng method; table prints no unit (b360 gives nM for a Table 4 value); read-out: affinity, 125I-[Tyr11]SS-14, AR 42J Cell Membranes (somatostatin receptors). Type of experiment: binding.

For another experiment, the target named is T7, mu opioid receptors (Rattus norvegicus, UniProt P33535).
T7 construct: rat forebrain (TRH, mu and delta opioid membrane assays); from tissue; host or cells: rat forebrain membranes
T7 sequence (P33535 whole entry): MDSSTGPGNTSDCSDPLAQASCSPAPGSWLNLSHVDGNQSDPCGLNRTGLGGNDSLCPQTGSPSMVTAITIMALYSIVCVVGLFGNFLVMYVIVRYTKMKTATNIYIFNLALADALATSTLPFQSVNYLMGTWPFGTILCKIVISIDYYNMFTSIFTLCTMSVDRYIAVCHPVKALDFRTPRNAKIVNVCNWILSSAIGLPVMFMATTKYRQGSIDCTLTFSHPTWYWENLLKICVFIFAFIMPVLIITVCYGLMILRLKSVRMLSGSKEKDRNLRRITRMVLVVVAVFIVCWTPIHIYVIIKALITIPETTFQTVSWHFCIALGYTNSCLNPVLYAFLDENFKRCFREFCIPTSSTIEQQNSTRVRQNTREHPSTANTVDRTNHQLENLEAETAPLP
Nature of the experiment: Mu opioid membrane assay, [3H]DAGO, rat forebrain membranes. Type of experiment: binding. Particulars: Cheng method; unit inferred; read-out: affinity, [3H]DAGO, Rat Forebrain membranes (mu opioid receptors).

Experiment [6] has as its target T5, GRP receptor. In words: GRP membrane receptor assay, 125I-[Tyr4]Bn, AR 42J cell membranes. Type of experiment: binding. Set-up: endogenous in cells; host or cells: rat AR 42J pancreatic acinar tumor cell membranes. As to conditions: read-out: affinity, 125I-[Tyr4]Bn, AR 42J Cell Membranes (GRP receptors); Cheng method; unit inferred.
Where [7] appears, read: read-out: IC50 NMB-stimulated [3H]IP, NMB Receptor, Transfected Cells.
Where [8] appears, read: read-out: IC50 NMB-stimulated [3H]IP, Transfected Cells (values in μM).
Where [9] appears, read: NMB-R transfected BALB 3T3 cells, Ki by Cheng method, read-out: Ki 125I-NMB Binding, NMB Receptor, Transfected Cells.
The mark [10] stands for this setting: NMB-R transfected cells, value or range given for a group, read-out: K1, 125I-NMB binding to NMB-R transfected cells (text).

Results on 4 compounds are retold here after US5462926A (Biomeasure, Inc., priority 1993, dated 1995).

Where two headings read alike, the source gives them in different places. Where a SMILES comes first, the peptide text is derived from it. Bridges are numbered along the chain shown (N, C = ends). Where no end group is shown, it is not given here. [ ]: non-standard residue; d: D form. 2Nal = N[C@@H](Cc1ccc2ccccc2c1)C(=O)O; Lys(Et2) = CCN(CC)CCCC[C@H](N)C(=O)O; Lys(iPr) = CC(C)NCCCC[C@H](N)C(=O)O

T5 sequence (P52500 whole entry): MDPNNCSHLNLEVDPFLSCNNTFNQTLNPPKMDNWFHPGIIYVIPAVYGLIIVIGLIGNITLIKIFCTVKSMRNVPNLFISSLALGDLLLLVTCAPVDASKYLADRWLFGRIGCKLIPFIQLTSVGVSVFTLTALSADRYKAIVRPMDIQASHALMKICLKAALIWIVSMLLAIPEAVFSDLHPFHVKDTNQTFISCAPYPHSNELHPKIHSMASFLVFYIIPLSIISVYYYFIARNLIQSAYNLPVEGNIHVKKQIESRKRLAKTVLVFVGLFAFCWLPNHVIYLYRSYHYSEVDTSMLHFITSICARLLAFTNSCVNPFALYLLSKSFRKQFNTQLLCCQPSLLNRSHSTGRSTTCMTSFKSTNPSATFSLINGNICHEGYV
T1 sequence (P52500 whole entry): as above

One may read the IC50 as the concentration at which inhibition is half-maximal. For the compound `CC(C)NCCCC[C@@H]1NC(=O)[C@@H](Cc2c[nH]c3ccccc23)NC(=O)[C@H](Cc2ccc(O)cc2)NC(=O)[C@@H](NC(=O)[C@H](N)Cc2ccccc2)CSSC[C@@H](C(=O)N[C@@H](Cc2ccc3ccccc3c2)C(N)=O)NC(=O)[C@H]([C@@H](C)O)NC1=O` [Analog #15, H2 -D-phe-Cys-Tyr-D-Trp-Lys(ipr)-Thr-Cys-Nal-NH2] (H-[dF]CY[dW][Lys(iPr)]TC[2Nal]-NH2; disulfide 2-7), the Ki in experiment [1] was 38.1 ± 21.5 µM; in experiment [2] it was 1.14 ± 0.105 µM; at rat NMB receptor (setting [9]), 2.33 ± 0.397 µM; at rat NMB receptor (setting [10]) it was 1.4 to 2.3 µM. Moreover, the 50% inhibitory concentration (IC50) at NMB receptor [3] (setting [7]) is 9.9 ± 2.31 µM; on NMB receptor [3] (setting [8]) it was 7.2 to 9.8 µM; on GRP receptor [4], over 10 µM. For the same compound, the “[3H]IP, analog Alone (10 μM)” value on NMB receptor [3] was found to be 11 ± 1 dym × 10^3. On NMB receptor [3], the “[3H]IP, analog Plus NMB (3 nM)” value was determined as 67 ± 7 dym × 10^3. Besides, the “fold by which cyclo SS-octa is more potent than the analog, 125I-NMB binding” value on rat NMB receptor (NMB-R transfected cells) is listed as 9 fold. Moreover, the “Amylase Release, analog Alone (10 μM)” value on GRP receptor [4] is recorded as 4 ± 2 % total. The “Amylase Release, analog Plus Bn (0.3 nM)” value on GRP receptor [4] worked out at 13 ± 2 % total.

As to `CCN(CC)CCCC[C@@H]1NC(=O)[C@@H](Cc2c[nH]c3ccccc23)NC(=O)[C@H](Cc2ccc(O)cc2)NC(=O)[C@@H](NC(=O)[C@H](N)Cc2ccccc2)CSSC[C@@H](C(=O)N[C@@H](Cc2ccc3ccccc3c2)C(N)=O)NC(=O)[C@H]([C@@H](C)O)NC1=O` [Analog #16, H2 -D-Phe-Cys-Tyr-D-TrP-Lys(diEt)-Thr-Cys-Nal-NH2] (H-[dF]CY[dW][Lys(Et2)]TC[2Nal]-NH2; disulfide 2-7), the Ki in experiment [1] was over 10 µM; in [2], 1.09 ± 0.038 µM; at rat NMB receptor (setting [9]), 3.95 ± 0.509 µM; on rat NMB receptor (setting [10]), 3.9 to 4.4 µM. Further, the half-inhibitory concentration (IC50) was 7.21 ± 2.79 µM at NMB receptor [3] (setting [7]), 7.2 to 9.8 µM at NMB receptor [3] (setting [8]) and over 10 µM at GRP receptor [4]. For the same compound, the “[3H]IP, analog Alone (10 μM)” value on NMB receptor [3] stood at 11 ± 2 dym × 10^3. The “[3H]IP, analog Plus NMB (3 nM)” value at NMB receptor [3] was 73 ± 15 dym × 10^3. The “fold by which cyclo SS-octa is more potent than the analog, 125I-NMB binding” value on rat NMB receptor (NMB-R transfected cells) is recorded as 18 fold. Moreover, the “Amylase Release, analog Alone (10 μM)” value on GRP receptor [4] is recorded as 5 ± 1 % total. On GRP receptor [4], the “Amylase Release, analog Plus Bn (0.3 nM)” value was found to be 12 ± 1 % total.

The Kd is the free concentration of one partner at which half of the binding sites on the other are occupied at equilibrium, for simple one-to-one binding. With `CSCC[C@H](NC(=O)[C@H](Cc1ccccc1)NC(=O)[C@H](Cc1c[nH]cn1)NC(=O)CNC(=O)[C@@H](NC(=O)[C@H](C)NC(=O)[C@H](Cc1c[nH]c2ccccc12)NC(=O)[C@H](CC(C)C)NC(=O)[C@H](CC(N)=O)NC(=O)CN)[C@@H](C)O)C(N)=O` [NMB, neuromedin B, reference compound], the Ki at NMB receptor [5] is 0.0011 ± 0.0002 µM; at somatostatin receptors it was over 10000 nM; at mu opioid receptors, over 10 µM; at GRP receptor [6] it was 0.019 ± 0.001 µM. Moreover, the Kd at rat NMB receptor (NMB-R transfected cells, read-out: Kd of NMB for NMB receptors without cyclo SS-octa) is 0.0031 ± 0.0002 µM.

On to “gastrin-releasing peptide (VPLPAGGGTVLTKMYPRGNHWAVGHLM; ends and bridges not checked; UniProt P07492 24-50, looked up) [GRP, mammalian bombesin-related peptide, from Peninsula Laboratories, reference compound]”, for which the Ki is 0.297 ± 0.015 µM with NMB receptor [5], over 10000 nM with somatostatin receptors and over 10 µM in the experiment with mu opioid receptors.
